{
  "source": "patent US7943658B2",
  "about": "“Indole indane amide compounds useful as CB2 agonists and method” (Bristol-Myers Squibb Company, priority 2007, dated 2011)",
  "key": {"hCB2 receptors": {"biological_target": "T1, hCB2 receptors (Homo sapiens, UniProt P34972)", "T1 construct": "expressed in transfected cells; host or cells: CHO cells", "T1 sequence (P34972 whole entry)": "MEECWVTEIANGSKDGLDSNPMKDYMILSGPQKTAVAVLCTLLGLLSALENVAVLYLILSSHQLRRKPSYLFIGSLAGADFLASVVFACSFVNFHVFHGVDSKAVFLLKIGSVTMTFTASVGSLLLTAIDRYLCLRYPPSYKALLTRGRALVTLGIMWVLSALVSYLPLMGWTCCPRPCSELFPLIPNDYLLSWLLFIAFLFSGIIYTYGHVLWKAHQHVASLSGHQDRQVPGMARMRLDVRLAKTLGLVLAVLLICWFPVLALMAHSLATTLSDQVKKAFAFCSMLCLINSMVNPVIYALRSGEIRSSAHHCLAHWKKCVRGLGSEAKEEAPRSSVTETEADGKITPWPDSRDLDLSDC", "experiment": "Filtration binding assay, [3H]CP55,940 displacement", "settings": "membrane proteins or CHO cells expressing hCB2, read-out: CB2 binding Ki", "method": "Compound dilutions were carried out in duplicate in binding buffer [25 mM HEPES pH 7.4, 150 mM NaCl, 1 mM EDTA, 2 mM MgCl2, 0.25% BSA, […]]. Mix binding buffer, membrane proteins (or CHO cells expressing hCB2 receptors) together. Dispense 75 ul of mixture into each well in 96 well plates. Add 1 ul of drug in DMSO, or DMSO alone into each well. 1:500-1000 dilute the hot ligand [^3H]CP55,940 (specific activity=120 Ci/mmol; PerkinElmer Life and Analytical Sciences) in binding buffer and add 25 ul per well with either 5 ug/well cell membrane or 50000 cells/well. After incubation at room temperature for 2 hours, transfer the binding reaction onto filtration plates (UniFilter CF/C filter plate presoaked with 0.3% polyethylenimine; PerkinElmer Life and Analytical Sciences) using Packard Cell Harvester. Wash the filter with quarter strength of PBS (1:4 dilution of regular PBS with H2O) 8 times. Air dry the filter, add 40 ul MicroScint20 into each well, seal the top, and count with the TopCount. Bound radioactivity was analyzed for Ki using nonlinear regression analysis (Excel Xfit) with the Kd values for [3H]CP55,940 determined from saturation experiments."}, "[1]": {"biological_target": "T2, CB2/CHO cell membrane proteins (Homo sapiens, UniProt P34972)", "T2 construct": "expressed in transfected cells; host or cells: CHO cells (membranes)", "T2 sequence (P34972 whole entry)": "as above", "experiment": "GTPgS binding assay", "format": "biochemical", "settings": "[35S]GTPγS, CB2/CHO cell membranes", "method": "Add 50 ul of reaction mixture containing 2 ug of CB2/CHO cell membrane proteins, 10 ul WGA-PVT beads (20 mg/ml), and 5 uM GDP in assay buffer (20 mM HEPES pH 7.4, 100 mM NaCl, 1 mM EDTA, 10 mM MgCl2, 10 ug/ml saponin, 0.25% BSA, and 1 uM leupeptin) into each well in 96 well white plate (Corning 3693, VWR#29444-312). Add 1 ul of testing compound into test, 1 ul of DMSO into basal, 1 ul of 200 uM CP55,940 into 100% activation, 1 ul of 1 mM cold GTPγS into NSB wells, respectively. Dilute [^35S]GTPγS (1:12.5 pre-diluted 1 uCi/ul stock, NEG030H, NEN) 1:1350 in binding buffer and add 25 ul into each well (200 pM final). Incubate at RT for 90 min and spin the plate at 1000 rpm for 5 min before counting with TopCount for 1-2 min."}},
  "data": [
    {"smiles": "CC1(C)Cc2ccc(C#N)cc2[C@@H]1NC(=O)c1cc2cc(O)ccc2[nH]1", "note": "[Example 1, (R)—N-(6-Cyano-2,2-dimethyl-2,3-dihydro-1H-inden-1-yl)-5-hydroxy-1H-indole-2-carboxamide]", "values": [
      {"measurement": "Ki", "setting": "hCB2 receptors", "result": 3, "unit": "nM"},
      {"measurement": "EC50", "setting": "[1]", "result": "2.4 ± 0.55", "unit": "nM"}
    ]},
    {"smiles": "CC1(C)Cc2ccc(C#N)cc2[C@H]1NC(=O)c1cc2cc(O)ccc2[nH]1", "note": "[Example 1A, (S)—N-(6-Cyano-2,2-dimethyl-2,3-dihydro-1H-inden-1-yl)-5-hydroxy-1H-indole-2-carboxamide]", "values": [
      {"measurement": "Ki", "setting": "hCB2 receptors", "result": 1590, "unit": "nM"}
    ]},
    {"smiles": "CC1(C)Cc2ccc(C#N)cc2[C@@H]1NC(=O)c1cc2cc(Cl)ccc2[nH]1", "note": "[Example 2, (R)N-(6-Cyano-2,2-dimethyl-2,3-dihydro-1H-inden-1-yl)-5-chloro-1H-indole-2-carboxamide]", "values": [
      {"measurement": "Ki", "setting": "hCB2 receptors", "result": "0.71 ± 0.18", "unit": "nM"},
      {"measurement": "EC50", "setting": "[1]", "result": "2.2 ± 0.48", "unit": "nM"}
    ]},
    {"smiles": "Cn1c(C(=O)N[C@H]2c3cc(C#N)ccc3CC2(C)C)cc2cc(Cl)ccc21", "note": "[Example 3, (R)-5-Chloro-N-(6-cyano-2,2-dimethyl-2,3-dihydro-1H-inden-1-yl)-1-methyl-1H-indole-2-carboxamide]", "values": [
      {"measurement": "Ki", "setting": "hCB2 receptors", "result": "7.6 ± 1.7", "unit": "nM"},
      {"measurement": "EC50", "setting": "[1]", "result": "4.5 ± 1.2", "unit": "nM"}
    ]},
    {"smiles": "CN(C)CCn1c(C(=O)N[C@H]2c3cc(C#N)ccc3CC2(C)C)cc2cc(Cl)ccc21", "note": "[Example 4, (R)-5-Chloro-N-(6-cyano-2,2-dimethyl-2,3-dihydro-1H-inden-1-yl)-1-(2-(dimethylamino)ethyl)-1H-indole-2-carboxamide]", "values": [
      {"measurement": "Ki", "setting": "hCB2 receptors", "result": "60 ± 26", "unit": "nM"},
      {"measurement": "EC50", "setting": "[1]", "result": "8.1 ± 2.2", "unit": "nM"}
    ]},
    {"smiles": "CC1(C)Cc2ccc(C#N)cc2[C@@H]1NC(=O)c1cc2cc(Cl)ccc2n1CCN1CCOCC1", "note": "[Example 5, (R)-5-Chloro-N-(6-cyano-2,2-dimethyl-2,3-dihydro-1H-inden-1-yl)-1-(2-morpholinoethyl)-1H-indole-2-carboxamide]", "values": [
      {"measurement": "Ki", "setting": "hCB2 receptors", "result": "39 ± 14", "unit": "nM"},
      {"measurement": "EC50", "setting": "[1]", "result": "7.8 ± 2.5", "unit": "nM"}
    ]},
    {"smiles": "CC1(C)Cc2ccc(C#N)cc2[C@@H]1NC(=O)c1cc2ccccc2[nH]1", "note": "[Example 6, (R)—N-(6-Cyano-2,2-dimethyl-2,3-dihydro-1H-inden-1-yl)-1H-indole-2-carboxamide]", "values": [
      {"measurement": "Ki", "setting": "hCB2 receptors", "result": "2.4 ± 1.1", "unit": "nM"}
    ]},
    {"smiles": "CC1(C)Cc2ccc(C#N)cc2[C@@H]1NC(=O)c1cc2cc(F)ccc2[nH]1", "note": "[Example 7, (R)—N-(6-Cyano-2,2-dimethyl-2,3-dihydro-1H-inden-1-yl)-5-fluoro-1H-indole-2-carboxamide]", "values": [
      {"measurement": "Ki", "setting": "hCB2 receptors", "result": "0.24 ± 0.12", "unit": "nM"}
    ]},
    {"smiles": "CC1(C)Cc2ccc(C#N)cc2[C@@H]1NC(=O)c1cc2cc([N+](=O)[O-])ccc2[nH]1", "note": "[Example 8, (R)—N-(6-Cyano-2,2-dimethyl-2,3-dihydro-1H-inden-1-yl)-5-nitro-1H-indole-2-carboxamide]", "values": [
      {"measurement": "Ki", "setting": "hCB2 receptors", "result": "4.2 ± 1.6", "unit": "nM"}
    ]},
    {"smiles": "CC1(C)Cc2ccc(C#N)cc2[C@@H]1NC(=O)c1cc2cc(N)ccc2[nH]1", "note": "[Example 9, (R)-5-Amino-N-(6-cyano-2,2-dimethyl-2,3-dihydro-1H-inden-1-yl)-1H-indole-2-carboxamide]", "values": [
      {"measurement": "Ki", "setting": "hCB2 receptors", "result": "39 ± 14", "unit": "nM"}
    ]},
    {"smiles": "COCCNc1ccc2[nH]c(C(=O)N[C@H]3c4cc(C#N)ccc4CC3(C)C)cc2c1", "note": "[Example 10, (R)—N-(6-Cyano-2,2-dimethyl-2,3-dihydro-1H-inden-1-yl)-5-(2-methoxyethylamino)-1H-indole-2-carboxamide]", "values": [
      {"measurement": "Ki", "setting": "hCB2 receptors", "result": "50 ± 16", "unit": "nM"}
    ]},
    {"smiles": "COC(=O)c1ccc2c(c1)[C@H](NC(=O)c1cc3cc(Cl)ccc3[nH]1)C(C)(C)C2", "note": "[Example 11, (R)-Methyl-3-(5-chloro-1H-indole-2-carboxamido)-2,2-dimethyl-2,3-dihydro-1H-indene-5-carboxylate]", "values": [
      {"measurement": "Ki", "setting": "hCB2 receptors", "result": "35 ± 12", "unit": "nM"}
    ]}
  ]
}
